Results published in patent publication US10478464B2, “Compositions and methods of use” (priority 2009, dated 2019).

Assays:
[1] = test system: Hep3B liver cancer cell line; experiment: Cell survival, colorimetric MTT assay, Hep3B; format: cell-based; conditions: 100 μM, 72 hours
Method: 2) Against the liver cancer cell lines: The effect of the racemic mixture of 8-HHA and that of the individual enantiomers, namely S and R enantiomers, were examined on survival of PLC/PRF/5 (also referred to as “PLC-5” or “PLC5”), Hep3B and SNU449 (also referred to as “SNU”) liver cancer cell lines. The cell viability was examined in the exponential growth phase with 100 μM of 8-HHA for 72 hours using colorimetric MTT assay. In separate assays, PLC-5 cells were treated with different concentrations of S-enantiomer of 8-HHA ranging from 20-100 μM for 72 hours.

[2] = Maximal tolerated dose (MTD), single IV bolus; format: in vivo
Method: The purpose of this study was to determine the maximum tolerated dose of 8-HHA following intravenous (IV) administration in ICR mice. A racemic mixture of 8-HHA, placebo, and vehicle were administered to 20 ICR female mice with weight of 25-30 grams, respectively. The 8-HHA was formulated in nanolipid at concentration of 0, 10, 20 and 40 mg/ml. There were 4 animals per group and they were injected with 0, 10, 20 and 40 mg/kg dose of 8-HHA Mice were given a single bolus dose via the tail vein according to group assignment. One week after dosing mice were sacrificed. Daily clinical observations were performed 15 minutes and 1 hour post dose. The mice were observed daily for any adverse effects until necropsy on study day 8. Body weights were recorded for all the mice prior to test substance administration, and every other day throughout the test period. This entire study was performed at Toxikon Corporation, Bedford, Mass.

[3] = test system: colorectal cancer cell lines (HCT-116, HCT-15, KM12); experiment: NCI 60 human tumor cell line screen (MTT), colorectal lines; conditions: 10 μM; three out of 7 lines
Method: (§1) The screening is a microplate cytotoxicity assays based on a simple colorimetric (MTT) assay which relies on the metabolic reduction of a tetrazolium dye in viable cells to a colored formazan product. A modified protocol was used for the screening of the compound and measures the inhibition of growth of various tumor cell lines. The 8-HHA tested in this assay was at the concentration of 10 μM.

[4] = test system: leukemia cell lines (CCRF-CEM, K-562, SR, MOLT-4, RPMI-8226, HL-60(TB)); experiment: NCI 60 human tumor cell line screen (MTT), leukemia lines; format: cell-based; conditions: 10 μM
[5] = test system: HOP-92 lung cancer cell lines; experiment: Cell survival, colorimetric MTT assay, HOP-92; format: cell-based, human; conditions: 100 μM, 72 hours
Method: 1) Against the lung cancer cell lines: The effect of the racemic mixture of 8-HHA and that of the individual enantiomers, namely S and R enantiomers, were examined on the survival of HOP-92 lung cancer cell lines. The cell viability was examined in the exponential growth phase with 100 μM of 8-HHA for 72 hours using colorimetric MTT assay. In separate assays, HOP-92 cells were treated with different concentrations of the S-enantiomer of 8-HHA ranging from 20-100 μM for 72 hours.

[6] = test system: non-small cell lung cancer cell lines (HOP-92, NCI-H460); experiment: NCI 60 human tumor cell line screen (MTT), non-small cell lung cancer lines; conditions: 10 μM
Method: as §1

## CCCCCCCCC(O)CCCCCCC(=O)O (racemic) [Sample 8-HHA, 8-hydroxy-palmitic acid]
[1]
  reduced the survival of Hep3B cell line by: 25%
[2]; 10 mg/kg and 20 mg/kg IV
  tolerability / clinical abnormalities: did not demonstrate any clinical abnormalities
[2]; high dose 40 mg/kg IV, 4 animals per group
  mice that died shortly after being dosed: Two
[2]; mouse, in vivo, ICR female mice, single IV bolus, nanolipid formulation, read-out: maximum tolerated dose
  MTD at 8 days: 20 mg/kg
[2]; single IV bolus
  body weight at day 6 and 8: did not vary from pre dose weight
[3]
  growth suppression of colorectal cancer cell lines, in words: moderate evidence of growth suppression
[4]
  suppressed growth of leukemia cell lines: 40-96%
[5]
  reduced the survival of HOP92 cell lines by: 25%
[6]
  inhibition of growth on non-small cell lung cancer cell lines, in words: remarkable inhibition of growth
